Several values for one entry are separate records, joined by “and”; a condition that tells them apart may be missing. Identical values can stand only once.
Legend:
Plasmodium berghei [1] = test: Antimalarial effect against trophozoite-induced Plasmodium berghei in mice (Mus musculus) after 20 mg/kg subcutaneous dose; assay type: functional
Plasmodium berghei [2] = test: Antimalarial effect against trophozoite-induced Plasmodium berghei in mice (Mus musculus) at 320 mg/kg subcutaneous dose; assay type: functional
Plasmodium berghei [3] = test: Antimalarial effect against trophozoite-induced Plasmodium berghei in mice (Mus musculus) after 40 mg/kg subcutaneous dose; assay type: functional
Plasmodium berghei [4] = test: (§1) Antimalarial effect against trophozoite-induced Plasmodium berghei in mice (Mus musculus) at 640 mg/kg subcutaneous dose; assay type: functional
Plasmodium berghei [5] = test: Antimalarial effect against trophozoite-induced Plasmodium berghei in mice (Mus musculus) at 160 mg/kg subcutaneous dose; assay type: functional
Plasmodium berghei [6] = test: Antimalarial activity against trophozoite-induced Plasmodium berghei in mice (Mus musculus); assay type: functional
Plasmodium berghei [7] = test: Antimalarial effect against trophozoite-induced Plasmodium berghei in mice (Mus musculus) at 80 mg/kg subcutaneous dose; assay type: functional
Mus musculus [8] = test: Number of mice cured at a dose of 640 mg/kg sc; assay type: functional; conditions: route subcutaneous
Mus musculus [9] = test: Antimalarial effect against trophozoite induced Plasmodium berghei in mice (Mus musculus) at dosage of 40 mg/kg after subcutaneous administration; assay type: functional
[10] = The ratio of SD90 of the quinine hydrochloride, to the SD90 of the test substance for the Dose of 36 mg/kg; assay type: functional
Plasmodium berghei [11] = test: as §1; assay type: functional; remark: listed apart in the source
[12] = The ratio of SD90 of the quinine hydrochloride, to the SD90 of the test substance for the Dose of 80 mg/kg; assay type: functional
[13] = The ratio of SD90 of the quinine hydrochloride, to the SD90 of the test substance for the Dose of 30 mg/kg; assay type: functional
Mus musculus [14] = test: Antimalarial effect against trophozoite induced Plasmodium berghei in mice (Mus musculus) at dosage of 640 mg/kg after subcutaneous administration; No. of mice (Mus musculus) surviving after 60 days 2; assay type: functional
Mus musculus [15] = test: Antimalarial effect against trophozoite induced Plasmodium berghei in mice (Mus musculus) at dosage of 160 mg/kg after subcutaneous administration.; assay type: functional
Mus musculus [16] = test: Number of mice cured at a subcutaneous dose of 640 mg/kg.; assay type: functional
[17] = The ratio of SD90 of the quinine hydrochloride, to the SD90 of the test substance for the Dose of 68 mg/kg; assay type: functional
Plasmodium berghei [18] = test: Antimalarial activity against trophozoite-induced Plasmodium berghei in mice (Mus musculus) at 160 mg/kg subcutaneous dose; assay type: functional; conditions: 160 mg/kg
Mus musculus [19] = test: Number of mice cured at a dose of 320 mg/kg sc; assay type: functional; conditions: route subcutaneous, 320 mg/kg
[20] = The ratio of SD90 of the quinine hydrochloride, to the SD90 of the test substance for the Dose of 8.4 mg/kg; assay type: functional
Mus musculus [21] = test: Number of toxic deaths at a dose of 320 mg/kg; assay type: toxicity, organism-based; design: dose 320 mg/kg; conditions: in vivo
Mus musculus [22] = test: Number of toxic deaths at a dose of 640 mg/kg; assay type: toxicity, organism-based; design: dose 640 mg/kg; conditions: in vivo
[23] = The ratio of SD90 of the quinine hydrochloride, to the SD90 of the test substance for the Dose of >33 mg/kg; assay type: functional
Mus musculus [24] = test: Number of mice cured at a subcutaneous dose of 160 mg/kg.; assay type: functional; conditions: 160 mg/kg
Mus musculus [25] = test: Antimalarial effect against trophozoite-induced Plasmodium berghei in mice (Mus musculus) at dosage of 320 mg/kg after subcutaneous administration; No. of mice (Mus musculus) surviving after 60 days 4; assay type: functional
Mus musculus [26] = test: Antimalarial effect against trophozoite-induced Plasmodium berghei in mice (Mus musculus) at dosage of 160 mg/kg after subcutaneous administration; No. of mice (Mus musculus) surviving after 60 days 3; assay type: functional
[27] = The ratio of SD90 of the quinine hydrochloride, to the SD90 of the test substance for the Dose of 8.5 mg/kg; assay type: functional
[28] = The ratio of SD90 of the quinine hydrochloride, to the SD90 of the test substance for the Dose of 40 mg/kg; assay type: functional
Mus musculus [29] = test: Number of mice cured at a subcutaneous dose of 320 mg/kg.; assay type: functional
[30] = The ratio of SD90 of the quinine hydrochloride, to the SD90 of the test substance for the Dose of 38 mg/kg; assay type: functional
[31] = The ratio of SD90 of the quinine hydrochloride, to the SD90 of the test substance for the Dose of >34 mg/kg; assay type: functional

SMILES | MST (Plasmodium berghei [1]) [days] | MST (Plasmodium berghei [2]) [days] | MST (Plasmodium berghei [4]; 640 mg/kg) | MST (Plasmodium berghei [5]) [days] | SD90 (Plasmodium berghei [6]) [mg/kg/day] | MST (Plasmodium berghei [7]) [days] | No. of survivals (Mus musculus [8]) | MST (Plasmodium berghei [3]; 40 mg/kg) | MST (Plasmodium berghei [5]; 160 mg/kg) | other results
CCN1CCCC(Nc2nc(Nc3cc(Cl)cc(Cl)c3)nc3ccc(Cl)cc23)C1 (stereo not given) | 0.2 | 6.4 | 7.8 days and 4.8 days | 1 | 36 | 0.6 | 3 |  |  | MST (Plasmodium berghei [3]): 0.2 days; MST (Mus musculus [9]): 0.4 days; Ratio [10]: 2.1
Clc1cc(Cl)cc(Nc2nc(NCCN3CCCC3)c3ccccc3n2)c1 | 0.5 | 5.9 |  |  | 80 | 1.7 |  | 0.9 days and 1.3 days | 3.5 days and 4.1 days | MST (Plasmodium berghei [11]; 640 mg/kg): 10.7 days and 10.3 days; Ratio [12]: 0.9
CCN(CC)CCNc1nc(Nc2ccc(Cl)c(Cl)c2)nc2ccc([N+](=O)[O-])cc12 |  |  |  |  | 30 |  |  | 0.4 days and 0.7 days | 7 days and 7.3 days | MST (Plasmodium berghei [1]; 20 mg/kg): 0.2 days and 0.3 days; MST (Plasmodium berghei [2]; 320 mg/kg): 10.4 days and 10.9 days; MST (Plasmodium berghei [11]): 20.6 days; MST (Plasmodium berghei [7]; 80 mg/kg): 1.2 days and 1.5 days; Ratio [13]: 2.5
Clc1ccc(Nc2nc(NCCN3CCCC3)c3ccccc3n2)cc1 | 0.1 | 18.2 |  | 6.7 | 68 | 1.1 |  | 0.7 days and 1.1 days |  | MST (Plasmodium berghei [4]): 25.4 days; MST (Mus musculus [14]): 24.6 days; MST (Mus musculus [15]): 6.1 days; No. of cured (Mus musculus [16]; 640 mg/kg): 3 and 1; Ratio [17]: 1.1
CCN1CCC(CNc2nc(Nc3ccc(Cl)c(Cl)c3)nc3ccccc23)CC1 | 0.7 |  |  |  | 8.4 | 9.1 |  | 7.5 days and 7.3 days |  | MST (Plasmodium berghei [18]): 23.9 days and 27.9 days; No. of cured (Mus musculus [19]): 5 and 4; No. of cured (Mus musculus [16]): 5; Ratio [20]: 8.9
CCOc1ccc(Nc2nc(NCCN(CC)CC)c3cc(Cl)ccc3n2)cc1CN1CCCC1 | 0.2 | 7.8 | 13.3 days and 12.8 days |  | >33 | 1 |  | 0.6 days and 0.2 days | 4.8 days and 4.6 days | No. of toxic deaths (Mus musculus [21]): 2; No. of toxic deaths (Mus musculus [22]): 3; Ratio [23]: <2.3
CN(C)C1CCC(Nc2nc(Nc3ccc(Cl)c(Cl)c3)nc3ccccc23)CC1 (stereo in doubt; 23) |  |  |  |  | 8.5 |  | 5 | 9.7 days and 9.9 days |  | MST (Plasmodium berghei [1]; 20 mg/kg): 0.9 days; MST (Plasmodium berghei [18]): 27.4 days; No. of survivals (Mus musculus [24]): 3; MST (Mus musculus [25]): 25.9 days; MST (Mus musculus [26]): 25.4 days; Ratio [27]: 8.8
CCN(CC)CCNc1nc(Nc2ccc(OC)c(CN(CC)CC)c2)nc2ccccc12 | 0.4 |  |  | 8.6 | 40 | 5.6 | 2 |  |  | MST (Plasmodium berghei [3]): 2.8 days; No. of toxic deaths (Mus musculus [21]): 1; No. of toxic deaths (Mus musculus [22]): 1; Ratio [28]: 1.9; No. of survivals (Mus musculus [29]): 2
CCN1CCCC(Nc2nc(Nc3ccc(Cl)cc3)nc3ccccc23)C1 (stereo not given) | 0.2 | 20 | 28.3 days and 28.8 days |  | 38 | 3 |  | 0.4 days and 0.6 days | 10.6 days and 11.4 days | No. of cured (Mus musculus [16]): 3; Ratio [30]: 2
CCOc1ccc(Nc2nc(NCCN(CC)CC)c3ccc(Cl)cc3n2)cc1CN1CCCC1 |  |  |  |  | >34 |  |  |  |  | Ratio [31]: <2.2

Reference: ChEMBL document CHEMBL1121775, “Synthesis and antimalarial effects of N2-aryl-N4-[(dialkylamino)alkyl]- and N4-aryl-N2-[(dialkylamino)alkyl]-2,4-quinazolinediamines” (J Med Chem, 1981)
